Measurements published in BindingDB's records for doi:10.7270/Q2ZC817P (The Scripps Research Institute Molecular Screening Center, 2007).
pEC50: −log10 of the molar value. Counter-ions that a name gives are not always drawn.

The compounds below were run against Sphingosine 1-phosphate receptor 1 (Homo sapiens, UniProt P21453) (assay: S1P1 agonism potentiation – cell-based, potentiator mode, 60K MLSMR set, dose response (AID 466)). Conditions: not given.
Chain of Sphingosine 1-phosphate receptor 1 (P21453 whole entry): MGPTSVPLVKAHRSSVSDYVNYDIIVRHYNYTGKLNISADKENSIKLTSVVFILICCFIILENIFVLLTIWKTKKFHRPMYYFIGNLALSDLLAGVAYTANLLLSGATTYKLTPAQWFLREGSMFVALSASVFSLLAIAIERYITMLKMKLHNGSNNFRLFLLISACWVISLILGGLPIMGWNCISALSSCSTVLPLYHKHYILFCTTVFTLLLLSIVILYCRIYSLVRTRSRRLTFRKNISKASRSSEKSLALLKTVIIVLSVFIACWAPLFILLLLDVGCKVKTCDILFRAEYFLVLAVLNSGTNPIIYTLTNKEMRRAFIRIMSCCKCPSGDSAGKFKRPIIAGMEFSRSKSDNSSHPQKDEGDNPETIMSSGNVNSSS
Compound `O=C(CSc1nnc(Cn2nnc3ccccc32)o1)N(Cc1ccc(F)cc1)c1ccccc1` [2-(5-Benzotriazol-1-ylmethyl-[1,3,4]oxadiazol-2-ylsulfanyl)-N-(4-fluoro-benzyl)-N-phenyl-acetamide] has a pEC50 of 5.31. In the case of `Cc1cccc(N2CCN(C(=O)CSCc3c(C)noc3C)CC2)c1C` [2-[(3,5-dimethyl-1,2-oxazol-4-yl)methylsulfanyl]-1-[4-(2,3-dimethylphenyl)piperazin-1-yl]ethanone], the pEC50 was 5.36. For `C=C(C)COc1ccc(-c2nc(N)nc(C)c2Oc2ccccc2OC)c(O)c1` [(6E)-6-[2-amino-5-(2-methoxyphenoxy)-6-methyl-1H-pyrimidin-4-ylidene]-3-(2-methylallyloxy)cyclohexa-2,4-dien-1-one], the pEC50 was 5.55. Work on `O=C(c1ccc(F)cc1)C(CN1CCOCC1)c1ccccc1` (stereo not given) [1-(4-fluorophenyl)-3-(4-morpholinyl)-2-phenyl-1-propanone;hydrochloride] yielded a pEC50 of 4.63. With `c1ccc(C(Cc2nc(-c3cccnc3)no2)c2ccccc2)cc1` [5-(2,2-diphenylethyl)-3-(3-pyridinyl)-1,2,4-oxadiazole] the pEC50 was 5.58. Work on `COc1ccc(-c2nc(-c3ccc(Br)o3)no2)cc1OC` [3-(5-bromanylfuran-2-yl)-5-(3,4-dimethoxyphenyl)-1,2,4-oxadiazole] yielded a pEC50 of 5.23. `Cc1cc(C=c2sc3nc4ccccc4n3c2=O)c(C)n1-c1ccccn1` [2-[(2,5-dimethyl-1-pyridin-2-yl-pyrrol-3-yl)methylidene]-[1,3]thiazolo[3,2-a]benzimidazol-1-one] was tested, and the pEC50 was 6.95. `O=C(Nc1ccc(O)cc1)c1cc2n(n1)C(C(F)(F)F)CC(c1ccco1)N2` (stereo not given) [5-(2-furanyl)-N-(4-hydroxyphenyl)-7-(trifluoromethyl)-1,5,6,7-tetrahydropyrazolo[1,5-a]pyrimidine-2-carboxamide] was tested, and the pEC50 was 5.48. Work on `Cc1ccc(-c2nnc(SCc3ccccc3F)o2)cc1` [2-[(2-fluorobenzyl)thio]-5-(4-methylphenyl)-1,3,4-oxadiazole] yielded a pEC50 of 5.94. With `O=S(=O)(c1cccs1)N1CCN(CC(O)COc2cc(Cl)ccc2Cl)CC1` (stereo not given) [1-(2,5-dichlorophenoxy)-3-(4-thiophen-2-ylsulfonyl-1-piperazinyl)-2-propanol] the pEC50 was 5.36. `O=C(Nc1ccccc1C(F)(F)F)c1cc(-c2ccc(O)cc2)on1` [5-(4-hydroxyphenyl)-N-[2-(trifluoromethyl)phenyl]isoxazole-3-carboxamide] showed a pEC50 of 6.11. `O=C(Nc1ccc(N2CCCCC2)c(Cl)c1)c1nnc[nH]1` showed a pEC50 of 6.06. `Cc1cc(C(=O)CSc2nnc(-c3cccs3)o2)c(C)n1-c1ccccc1` [1-(2,5-dimethyl-1-phenyl-3-pyrrolyl)-2-[(5-thiophen-2-yl-1,3,4-oxadiazol-2-yl)thio]ethanone] was tested, and the pEC50 was 5.38. `Cc1ccccc1-n1c(SCC(=O)c2cc(C)n(C)c2C)nnc1-c1ccncc1` [2-[[4-(2-methylphenyl)-5-pyridin-4-yl-1,2,4-triazol-3-yl]sulfanyl]-1-(1,2,5-trimethylpyrrol-3-yl)ethanone] gave a pEC50 of under 4.02. Compound `CC(C)OCCCNc1ncnc2c1[nH]c1ccc(F)cc12` has a pEC50 of 5.26. `COc1ccc(-c2nc(-c3ccc(NC(=O)c4ccncc4)cc3)no2)cc1OC` [MLS000115086] was tested, and the pEC50 was 6.16. Compound `CCOC(=O)c1cccc2c1-c1ccccc1C2N=O` (stereo not given) [9-hydroximinofluorene-4-carboxylic acid ethyl ester] has a pEC50 of 4.99. In the case of `CCCCn1nnnc1SCC(=O)c1ccc(C)c(C)c1` [2-(1-Butyl-1H-tetrazol-5-ylsulfanyl)-1-(3,4-dimethyl-phenyl)-ethanone], the pEC50 was 5.21. Work on `COC(=O)c1ccc(C(c2c(N)n(CC(C)C)c(=O)[nH]c2=O)N2CCN(c3ccccc3)CC2)cc1` (stereo not given) [4-[[6-amino-1-(2-methylpropyl)-2,4-dioxo-5-pyrimidinyl]-(4-phenyl-1-piperazinyl)methyl]benzoic acid methyl ester] yielded a pEC50 of under 4.02.

Same assay, conditions: inactive by the depositor's call
With `Clc1ccc(CSc2nnc(-c3ccncc3)o2)c(Cl)c1` [2-[(2,4-dichlorobenzyl)thio]-5-(4-pyridyl)-1,3,4-oxadiazole] the pEC50 was 4.41.
